Results published in the NIST ThermoML archive (doi:10.1021/acs.jced.7b00654).

Assay: xn = mol fraction of the nth substance listed
Conditions: 96.7 kPa, Liquid, Vibrating tube method

CCCCn1cc[n+](C)c1.[Cl-] [1-butyl-3-methylimidazolium chloride] + CC(=O)N(C)C
mass density [kg/m3]
Conditions	x1 = 0.177	x1 = 0.332	x1 = 0.428	x1 = 0.538	x1 = 0.664	x1 = 0.816	x1 = 0.904	x1 = 1
303.15 K	980.28	1010.24	1025.06	1038.52	1052.4	1066.29	1073.17	1079.41
308.15 K	976.2	1006.61	1021.6	1035.1	1049.19	1063.28	1070.28	1076.58
313.15 K	972.2	1002.98	1018.15	1031.7	1045.95	1060.2	1067.41	1073.78
318.15 K	968.23	999.36	1014.71	1028.35	1042.78	1057.21	1064.54	1070.99
323.15 K	964.27	995.75	1011.28	1024.85	1039.56	1054.27	1061.66	1068.19
328.15 K	960.32	992.15	1007.86	1021.56	1036.44	1051.33	1058.85	1065.36
333.15 K	956.38	988.55	1004.46	1018.33	1033.37	1048.41	1056.06	1062.6
338.15 K	952.45	984.97	1001.06	1015.16	1030.34	1045.52	1053.26	1059.87
343.15 K	948.53	981.38	997.67	1012.07	1027.37	1042.67	1050.47	1057.15
348.15 K	944.61	977.8	994.29	1009.03	1024.45	1039.87	1047.69	1054.42
353.15 K	940.67	974.22	990.92	1006.06	1021.59	1037.13	1044.91	1051.69

CCCCn1cc[n+](C)c1.[Cl-] [1-butyl-3-methylimidazolium chloride] + CN(C)C=O
mass density [kg/m3]
Conditions	x1 = 0.151	x1 = 0.295	x1 = 0.385	x1 = 0.493	x1 = 0.626	x1 = 0.79	x1 = 0.887	x1 = 1
303.15 K	987.64	1016.34	1030.08	1043.12	1055.89	1067.73	1072.65	1079.41
308.15 K	983.55	1012.63	1026.56	1039.78	1052.75	1064.72	1069.74	1076.58
313.15 K	979.45	1008.93	1023.05	1036.46	1049.6	1061.75	1066.84	1073.78
318.15 K	975.35	1005.24	1019.54	1033.15	1046.6	1058.83	1063.95	1070.99
323.15 K	971.26	1001.56	1016.05	1029.85	1043.35	1055.91	1060.97	1068.19
328.15 K	967.16	997.89	1012.57	1026.56	1040.24	1052.99	1058.13	1065.36
333.15 K	963.07	994.21	1009.1	1023.29	1037.16	1050.07	1055.31	1062.6
338.15 K	958.97	990.55	1005.66	1020.03	1034.08	1047.16	1052.48	1059.87
343.15 K	954.87	986.89	1002.24	1016.78	1031.03	1044.26	1049.67	1057.15
348.15 K	950.78	983.24	998.82	1013.55	1027.98	1041.39	1046.88	1054.42
353.15 K	946.68	979.59	995.4	1010.33	1024.94	1038.53	1044.11	1051.69

CCCCn1cc[n+](C)c1.[Cl-] [1-butyl-3-methylimidazolium chloride] + C[S+](C)[O-]
mass density [kg/m3]
Conditions	x1 = 0.161	x1 = 0.309	x1 = 0.401	x1 = 0.509	x1 = 0.641	x1 = 0.801	x1 = 0.894	x1 = 1
303.15 K	1090.42	1093.72	1092.13	1089.44	1086.22	1083.66	1081.72	1079.41
308.15 K	1086.85	1089.98	1088.58	1086.09	1082.96	1080.69	1078.88	1076.58
313.15 K	1083.14	1086.25	1085.04	1082.74	1079.73	1077.69	1075.99	1073.78
318.15 K	1079.58	1082.54	1081.51	1079.35	1076.52	1074.71	1073.12	1070.99
323.15 K	1075.76	1078.83	1078	1076.05	1073.33	1071.78	1070.22	1068.19
328.15 K	1072.19	1075.14	1074.5	1072.7	1070.18	1068.87	1067.39	1065.36
333.15 K	1068.87	1071.45	1071.01	1069.47	1067.09	1065.95	1064.59	1062.6
338.15 K	1065.13	1067.76	1067.54	1066.13	1064.06	1063.04	1061.79	1059.87
343.15 K	1061.44	1064.1	1064.07	1062.88	1061.11	1060.14	1058.99	1057.15
348.15 K	1057.69	1060.44	1060.63	1059.65	1058.17	1057.25	1056.19	1054.42
353.15 K	1053.72	1056.79	1057.19	1056.42	1055.25	1054.38	1053.41	1051.69

c1ccncc1 [pyridine] + CCCCn1cc[n+](C)c1.[Cl-]
mass density [kg/m3]
Conditions	x2 = 0	x2 = 0.163	x2 = 0.313	x2 = 0.404	x2 = 0.514	x2 = 0.644	x2 = 0.803	x2 = 0.895
303.15 K	973.09	1013.2	1035.67	1045.6	1054.49	1063.34	1072.41	1075.89
308.15 K	968.06	1009.09	1032.05	1042.19	1051.2	1060.26	1069.51	1073.02
313.15 K	963.02	1004.97	1028.43	1038.78	1047.94	1057.18	1066.59	1070.16
318.15 K	957.97	1000.85	1024.82	1035.39	1044.72	1054.11	1063.66	1067.3
323.15 K	952.9	996.73	1021.21	1032.01	1041.52	1051.04	1060.72	1064.45
328.15 K	947.82	992.6	1017.6	1028.63	1038.33	1047.99	1057.81	1061.65
333.15 K	942.72	988.47	1014	1025.25	1035.14	1044.96	1054.92	1058.86
338.15 K	937.6	984.34	1010.4	1021.89	1031.93	1041.94	1052.08	1056.09
343.15 K	932.46	980.21	1006.81	1018.53	1028.66	1038.93	1049.29	1053.31
348.15 K	927.3	976.06	1003.22	1015.17	1025.27	1035.92	1046.57	1050.53
353.15 K	922.12	971.91	999.63	1011.79	1021.81	1032.89	1044.02	1047.77
